Measured values from US11485744B2, “High penetration prodrug compositions of antimicrobials and antimicrobial-related compounds” (priority 2009, dated 2022).
Structures can show the parent of a compound that is named as a salt.

What was measured:
[1] = In vitro penetration across isolated human skin in modified Franz cells
Description: Penetration rates of HPPs and their parent drugs through human skin were measured in vitro by modified Franz cells. A Franz cell had two chambers, the top sample chamber and the bottom receiving chamber. The human skin tissue (360-400 μm thick) that separated the top and the receiving chambers was isolated from the anterior or posterior thigh areas.
A test compound (2 mL, 10% in 0.2 M phosphate buffer, pH 7.4) was added to the sample chamber of a Franz cell. The receiving chamber contained 10 ml of 0.2 M phosphate buffer which was stirred at 600 rpm. The amount of the tested compound penetrating the skin was determined by high-performance liquid chromatography (HPLC) method.

[2] = Conversion of HPPs to parent drugs in human plasma (half life); type: in vitro ADME; details: for half-life at 9.1 mg/mL: pH 7.4
Description: HPPs of antimicrobials or antimicrobial-related compounds converted to the parent antimicrobials or antimicrobial-related compounds quickly in good yield in human plasma.
A HPP of antimicrobial or antimicrobial-related compound (10 mg) was dissolved in 0.1 ml of 0.2M pH 7.4 phosphate buffer. 1 ml of human plasma, preheated to 37° C., was added into the mixture. The mixture was kept in a water bath at 37° C., and at every 2 min intervals 0.2 ml of samples were withdrawn and added to 0.4 ml of methanol to precipitate the plasma protein.

[3] = mouse, in vivo
Description: In vivo rates of penetration of HPPs of beta-lactam antibiotics through skin and blood-brain barrier of intact hairless mice were studied. […] After 2 hours, the mice were killed. 5 ml of methanol was added to 1 g of homogenized blood, liver, kidney, muscle, or brain. The samples were centrifuged for 5 min and analyzed by HPLC (Table 2).

Molecule: 3-[[(aminocarbonyl)oxy]methyl]-7-[[2-furanyl(methoxyimino)acetyl]amino]-8-oxo-5-thia-1-azabicyclo[4.2.0]oct-2-ene-2-carboxylic acid 2-diethylaminoethyl ester hydrochloride
- In vitro Penetration Rate (apparent flux), HPPs ([1]; Table 1a, isolated human skin, Franz cells, 10% in 0.2 M phosphate buffer pH 7.4, n=5): 0.67 ± 0.04 mg/cm^2/h
- Half life of HPPs in plasma ([2]; human plasma, 37° C.): 8 ± 1 min

Molecule: CCN(CC)CCOC(=O)C1=C(COC(C)=O)CSC2C(NC(=O)C(=NOC)c3csc(NC(C)=O)n3)C(=O)N12.Cl (stereo not shown) [3-[(acetyloxy)methyl]-7-[[(2-acetylamino-4-thiazolyl)(methoxyimino)acetyl]amino]-8-oxo-5-thia-1-azabicyclo[4.2.0]oct-2-ene-2-carboxylic acid 2-diethylaminoethyl ester hydrochloride]
- In vitro Penetration Rate (apparent flux), HPPs ([1]; human, 10 %, pH 7.4): 0.73 ± 0.06 mg/cm^2/h
- half-life at 9.1 mg/mL ([2]; human, plasma): 10 min

Molecule: CCN(CC)CCOC(=O)C1=C(COC(N)=O)CSC2N1C(=O)C2(NC(=O)Cc1cccs1)OC.Cl (stereo not shown) [3-[[(aminocarbonyl)oxy]methyl]-7-methoxy-8-oxo-7-[(2-thienylacetyl)amino]-5-thia-1-azabicyclo[4.2.0]oct-2-ene-2-carboxylic acid 2-diethylaminoethyl ester hydrochloride]
- In vitro Penetration Rate (apparent flux), HPPs ([1]; human, 10 %, pH 7.4): 0.61 ± 0.05 mg/cm^2/h
- half-life at 9.1 mg/mL ([2]; human, plasma): 7 min

Molecule: CCN(CC)CCOC(=O)C1N2C(=O)C(NC(=O)C3C(c4ccccc4)=NOC3C)C2SC1(C)C.Cl (stereo not shown) [6-(5-methyl-3-phenyl-2-isoxazoline-4-carboxamido)penicillinic acid 2-diethylaminoethyl ester hydrochloride]
- Amount of parent drug found in Blood [3]: 28 ± 5 µg/g
- Amount of parent drug found in Brain [3]: 8 ± 6 µg/g
- Amount of parent drug found in Kidney [3]: 16 ± 5 µg/g
- Amount of parent drug found in Liver [3]: 18 ± 7 µg/g
- Amount of parent drug found in Muscel [3]: 22 ± 5 µg/g
- Half life of HPPs in plasma ([2]; human, plasma): 12 ± 1 min

Molecule: CCN(CC)CCOC(=O)C1N2C(=O)C(NC(=O)[C@H](NC(=O)N3CCN(CC)C(=O)C3=O)c3ccccc3)C2SC1(C)C.Cl (stereo partly drawn) [6-D(−)-α-(4-ethyl-2,3-dioxo-1-piperazinylcarbonylamino)-α-phenylacetamidopenicillinic acid 2-diethylaminoethyl ester hydrochloride]
- In vitro Penetration Rate (apparent flux), HPPs ([1]; pH 7.4): 0.74 ± 0.08 mg/cm^2/h
- Half life of HPPs in plasma ([2]; human plasma, 37° C.): 15 ± 1 min

Molecule: CCN(CC)CCOC(=O)C1N2C(=O)C(NC(=O)c3c(-c4c(Cl)cccc4Cl)noc3C)C2SC1(C)C.Cl (stereo not shown) [6-[3-(2,6-dichlorophenyl)-5-methyl-4-isoxazolecarboxamido]penicillinic acid 2-diethylaminoethyl ester hydrochloride]
- Half life of HPPs in plasma ([2]; human, plasma): 12 ± 1 min

Molecule: CCN(CC)CCOC(=O)C1N2C(=O)C(NC(=O)c3c(-c4ccccc4Cl)noc3C)C2SC1(C)C.Cl (stereo not shown) [6-[3-(o-chlorophenyl)-5-methyl-4-isoxazolecarboxamido]penicillinic acid 2-diethylaminoethyl ester hydrochloride]
- Amount of parent drug found in Blood [3]: 25 ± 8 µg/g
- Amount of parent drug found in Brain [3]: 9 ± 5 µg/g
- Amount of parent drug found in Kidney [3]: 12 ± 7 µg/g
- Amount of parent drug found in Liver [3]: 14 ± 6 µg/g
- Amount of parent drug found in Muscel [3]: 20 ± 7 µg/g
- Half life of HPPs in plasma ([2]; human, plasma): 8 ± 1 min

Molecule: CCN(CC)CCOC(=O)C1N2C(=O)C(NC(=O)[C@H](NC(C)=O)c3ccccc3)C2SC1(C)C.Cl (stereo partly drawn) [6-[D(−)-α-acetamidophenylacetamidopenicillinic acid 2-diethylaminoethyl ester hydrochloride]
- Half life of HPPs in plasma ([2]; human, plasma): 10 ± 1 min

Molecule: CCN(CC)CCOC(=O)C1N2C(=O)[C@@H](NC(=O)C(NC(=O)N3CCN(S(C)(=O)=O)C3=O)c3ccccc3)C2SC1(C)C.Cl (stereo partly drawn) [6R-[2-[3-(methylsulfonyl)-2-oxo-1-imidazolidinecarboxamido]-2-phenylacetamido]penicillinic acid 2-diethylaminoethyl ester hydrochloride]
- Half life of HPPs in plasma ([2]; human, plasma): 13 ± 1 min

Molecule: CCN(CC)CCOC(=O)C1=C(COC(C)=O)CSC2C(NC(=O)Cc3cccs3)C(=O)N12.Cl (stereo not shown) [7-(2-thienylacetamido)cephalosporanic acid 2-diethylaminoethyl ester hydrochloride]
- In vitro Penetration Rate (apparent flux), HPPs ([1]; pH 7.4): 0.62 ± 0.06 mg/cm^2/h
- Half life of HPPs in plasma ([2]; human plasma, 37° C.): 9 ± 1 min

Molecule: C=CC1=C(C(=O)OCCN(CC)CC)N2C(=O)C(NC(=O)/C(=N\OCC(=O)OCC)c3csc(NC(C)=O)n3)C2SC1.Cl (stereo not shown) [7-[2-(2-acetylamino-4-thiazolyl)-2-((Z)-ethoxycarbonylmethoxy)imino]acetamido]-3-(vinyl)-8-oxo-5-thia-1-azabicyclo[4.2.0]oct-2-ene-2-carboxylic acid 2-diethylaminoethyl ester hydrochloride]
- In vitro Penetration Rate (apparent flux), HPPs ([1]; pH 7.4): 0.58 ± 0.05 mg/cm^2/h
- Half life of HPPs in plasma ([2]; human plasma, 37° C.): 9 ± 1 min

Molecule: CCN(CC)CCOC(=O)C1=C(COC)CSC2C(NC(=O)/C(=N\OC)c3csc(NC(C)=O)n3)C(=O)N12.Cl (stereo not shown) [7-[2-(2-acetylamino-4-thiazolyl)-2-((Z)-methoxyimino)acetamido]-3-(methoxymethyl)-8-oxo-5-thia-1-azabicyclo[4.2.0]oct-2-ene-2-carboxylic acid 2-diethylaminoethyl ester hydrochloride]
- In vitro Penetration Rate (apparent flux), HPPs ([1]; human, 10 %, pH 7.4): 0.51 ± 0.03 mg/cm^2/h
- half-life at 9.1 mg/mL ([2]; human, plasma): 8 min

Molecule: CCN(CC)CCOC(=O)C1=C(Cl)CSC2C(NC(=O)C(NC(C)=O)c3ccccc3)C(=O)N12.Cl (stereo not shown) [7-[(acetylaminophenylacetyl)amino]-3-chloro-8-oxo-5-thia-1-azabicyclo[4.2.0]oct-2-ene-2-carboxylic acid 2-diethylaminoethyl ester hydrochloride]
- In vitro Penetration Rate (apparent flux), HPPs ([1]; human, 10 %, pH 7.4): 0.71 ± 0.05 mg/cm^2/h
- half-life at 9.1 mg/mL ([2]; human, plasma): 8 min

Molecule: CCN(CC)CCOC(=O)C1=C(CSc2nnnn2C)CSC2C(NC(=O)C(O)c3ccccc3)C(=O)N12.Cl (stereo not shown) [7-[(hydroxyphenylacetyl)amino]-3-[[(1-methyl-1H-tetrazol-5-yl)thio]methyl]-8-oxo-5-thia-1-azabicyclo[4.2.0]oct-2-ene-2-carboxylic acid 2-diethylaminoethyl ester hydrochloride]
- In vitro Penetration Rate (apparent flux), HPPs ([1]; human, 10 %, pH 7.4): 0.75 ± 0.05 mg/cm^2/h
- half-life at 9.1 mg/mL ([2]; human, plasma): 10 min

Molecule: CCOC(=O)Cn1nnnc1SCC1=C(C(=O)OCCN(CC)CC)N2C(=O)C(NC(=O)Cc3ccccc3CNC(C)=O)C2SC1.Cl (stereo not shown) [7-[[[2-(acetylaminomethyl)phenyl]acetyl]amino]-3-[[[1-(ethoxylcarbonylmethyl)-1H-tetrazol-5-yl]thio]methyl]-8-oxo-5-thia-1-azabicyclo[4.2.0]oct-2-ene-2-carboxylic acid 2-diethylaminoethyl ester hydrochloride]
- In vitro Penetration Rate (apparent flux), HPPs ([1]; human, 10 %, pH 7.4): 0.52 ± 0.04 mg/cm^2/h
- half-life at 9.1 mg/mL ([2]; human, plasma): 9 min

Molecule: CCN(CC)CCOC(=O)C1=C(CSc2nnnn2C)CSC2C(NC(=O)C(NC(=O)N3CCN(CC)C(=O)C3=O)c3ccc(OC(C)=O)cc3)C(=O)N12.Cl (stereo not shown) [7-[[[[(4-ethyl-2,3-dioxo-1-piperazinyl)carbonyl]amino](4-acetoxyphenyl)acetyl]amino]-3-[[(1-methyl-1H-tetrazol-5-yl)thio]methyl]-8-oxo-5-thia-1-azabicyclo[4.2.0]oct-2-ene-2-carboxylic acid 2-diethylaminoethyl ester hydrochloride]
- In vitro Penetration Rate (apparent flux), HPPs ([1]; human, 10 %, pH 7.4): 0.57 ± 0.04 mg/cm^2/h
- half-life at 9.1 mg/mL ([2]; human, plasma): 12 min

Molecule: CCN(CC)CCOC(=O)C1N2C(=O)C(NC(=O)[C@H](NC(=O)N3CCNC3=O)c3ccccc3)C2SC1(C)C.Cl (stereo partly drawn) [D-α-[(imidazolidin-2-on-1-yl)carbonylamino]benzylpenicillin 2-diethylaminoethyl ester hydrochloride]
- Half life of HPPs in plasma ([2]; human, plasma): 9 ± 1 min

Molecule: Cc1onc(-c2ccccc2)c1C(=O)N[C@@H]1C(=O)N2[C@@H]1SC(C)(C)[C@@H]2C(=O)O [Oxacillin, reference compound]
- drug detected in blood, liver, kidney, muscle or brain of mice treated with only the parent drug [3]: No drug was detected
- In vitro Penetration Rate (apparent flux), Parent compounds ([1]; human, 10 %, pH 7.4): <0.001 mg/cm^2/h

Molecule: C=CCSCC(=O)NC1C(=O)N2C1SC(C)(C)C2C(=O)OCCN(CC)CC.Cl (stereo not shown) [allylmercaptomethylpenicillinic acid 2-diethylaminoethyl ester hydrochloride]
- Half life of HPPs in plasma ([2]; human, plasma): 8 ± 1 min

Molecule: C[C@]1(Cn2ccnn2)[C@H](C(=O)O)N2C(=O)C[C@H]2S1(=O)=O [tazobactam, [2S-(2alpha,3beta,5alpha)]-3-Methyl-7-oxo-3-(1H-1,2,3-triazol-1-ylmethyl)-4-thia-1-azabicyclo[3.2.0]heptane-2-carboxylic acid 4,4-dioxide sodium salt, reference compound]
- In vitro Penetration Rate (apparent flux), Parent compounds (beta-lactamases inhibitors) ([1]; human, 10 %, pH 7.4): <0.001 mg/cm^2/h

Molecule: C[C@]1(Cn2ccnn2)[C@H](C(=O)OCCN2CCCCC2)N2C(=O)C[C@H]2S1(=O)=O.Cl [tazobactam-PEE, [2S-(2alpha,3beta,5alpha)]-3-Methyl-7-oxo-3-(1H-1,2,3-triazol-1-ylmethyl)-4-thia-1-azabicyclo[3.2.0]heptane-2-carboxylic acid 4,4-dioxide 1-piperidineethyl ester•HCl salt]
- In vitro Penetration Rate (apparent flux), HPPs of beta-lactamases inhibitors ([1]; pH 7.4): 0.32 ± 0.03 mg/cm^2/h
